Data as given in the supplement of paper PMC10733146.

Tests used:
Test in all cases: viability relative to DMSO control (fraction); higher = less drug effect (more viable cells)
Conditions in all cases: 48 h
[1] = test system: primary ALL patient cells (S048)
In short: (§1)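 Compounds were pre-plated at five concentrations, one well each, in 384-well plates, and primary mononuclear tumour cells were plated on them at 4 × 10^4 cells per well. The cells, fresh or cryopreserved, had been Ficoll-isolated from blood or bone marrow or taken from processed lymph node. After 48 h at 37 °C and 5% CO2 in RPMI-1640 with penicillin/streptomycin, L-glutamine and human serum, viability was read as CellTiter-Glo luminescence relative to the median of 16 inner DMSO wells.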

[2] = test system: primary ALL patient cells (S088)
In short: as §1

[3] = test system: primary AML patient cells (S006)
In short: as §1

[4] = test system: primary AML patient cells (S011)
In short: as §1

[5] = test system: primary AML patient cells (S012)
In short: as §1

[6] = test system: primary AML patient cells (S017)
In short: as §1

[7] = test system: primary AML patient cells (S021)
In short: as §1

[8] = test system: primary AML patient cells (S056)
In short: as §1

[9] = test system: primary AML patient cells (S060)
In short: as §1

[10] = test system: primary AML patient cells (S081)
In short: as §1

[11] = test system: primary AML patient cells (S085)
In short: as §1

[12] = test system: primary B-PLL patient cells (S016)
In short: as §1

[13] = test system: primary BL patient cells (S005)
In short: as §1

[14] = test system: primary CLL patient cells (S031)
In short: as §1

[15] = test system: primary CLL patient cells (S043)
In short: as §1

[16] = test system: primary FL patient cells (S022)
In short: as §1

[17] = test system: primary FL patient cells (S087)
In short: as §1

[18] = test system: primary MCL patient cells (S063)
In short: as §1

[19] = test system: primary MCL patient cells (S068)
In short: as §1

Q: Which results are given for `C[C@@H](Oc1cc(-c2cnn(C3CCNCC3)c2)cnc1N)c1c(Cl)ccc(F)c1Cl` [Crizotinib]?
A: viability ([1]; 0.024 µM): 0.999; viability ([1]; 0.12 µM): 1.04; viability ([1]; 0.6 µM): 0.989; viability ([1]; 3 µM): 0.638; viability ([1]; 15 µM): 0.0947; viability ([2]; 0.024 µM): 0.93; viability ([2]; 0.12 µM): 0.956; viability ([2]; 0.6 µM): 0.798; viability ([2]; 3 µM): 0.568; viability ([2]; 15 µM): 0.0811; viability ([3]; 0.024 µM): 0.944; viability ([3]; 0.12 µM): 0.926; viability ([3]; 0.6 µM): 0.695; viability ([3]; 3 µM): 0.491; viability ([3]; 15 µM): 0.18; viability ([4]; 0.024 µM): 0.996; viability ([4]; 0.12 µM): 1.04; viability ([4]; 0.6 µM): 0.822; viability ([4]; 3 µM): 0.358; viability ([4]; 15 µM): 0.0468; viability ([5]; 0.024 µM): 1; viability ([5]; 0.12 µM): 1.06; viability ([5]; 0.6 µM): 0.999; viability ([5]; 3 µM): 0.992; viability ([5]; 15 µM): 0.163; viability ([6]; 0.024 µM): 1.03; viability ([6]; 0.12 µM): 1.03; viability ([6]; 0.6 µM): 1.02; viability ([6]; 3 µM): 0.636; viability ([6]; 15 µM): 0.299; viability ([7]; 0.024 µM): 1.06; viability ([7]; 0.12 µM): 1.1; viability ([7]; 0.6 µM): 1.1; viability ([7]; 3 µM): 0.831; viability ([7]; 15 µM): 0.345; viability ([8]; 0.024 µM): 1.13; viability ([8]; 0.12 µM): 0.919; viability ([8]; 0.6 µM): 1.07; viability ([8]; 3 µM): 0.857; viability ([8]; 15 µM): 0.084; viability ([9]; 0.024 µM): 0.926; viability ([9]; 0.12 µM): 0.931; viability ([9]; 0.6 µM): 0.931; viability ([9]; 3 µM): 0.841; viability ([9]; 15 µM): 0.445; viability ([10]; 0.024 µM): 0.9; viability ([10]; 0.12 µM): 0.922; viability ([10]; 0.6 µM): 0.895; viability ([10]; 3 µM): 0.85; viability ([10]; 15 µM): 0.386; viability ([11]; 0.024 µM): 1.04; viability ([11]; 0.12 µM): 1.02; viability ([11]; 0.6 µM): 0.822; viability ([11]; 3 µM): 0.434; viability ([11]; 15 µM): 0.18; viability ([12]; 0.024 µM): 0.971; viability ([12]; 0.12 µM): 0.944; viability ([12]; 0.6 µM): 0.874; viability ([12]; 3 µM): 0.88; viability ([12]; 15 µM): 0.255; viability ([13]; 0.024 µM): 0.975; viability ([13]; 0.12 µM): 0.986; viability ([13]; 0.6 µM): 0.905; viability ([13]; 3 µM): 0.766; viability ([13]; 15 µM): 0.309; viability ([14]; 0.024 µM): 1.1; viability ([14]; 0.12 µM): 1.08; viability ([14]; 0.6 µM): 1.12; viability ([14]; 3 µM): 0.712; viability ([14]; 15 µM): 0.194; viability ([15]; 0.024 µM): 0.95; viability ([15]; 0.12 µM): 0.977; viability ([15]; 0.6 µM): 0.949; viability ([15]; 3 µM): 0.772; viability ([15]; 15 µM): 0.4; viability ([16]; 0.024 µM): 1.09; viability ([16]; 0.12 µM): 1.06; viability ([16]; 0.6 µM): 1.09; viability ([16]; 3 µM): 0.959; viability ([16]; 15 µM): 0.377; viability ([17]; 0.024 µM): 0.979; viability ([17]; 0.12 µM): 1.03; viability ([17]; 0.6 µM): 0.999; viability ([17]; 3 µM): 0.821; viability ([17]; 15 µM): 0.111; viability ([18]; 0.024 µM): 0.942; viability ([18]; 0.12 µM): 1.03; viability ([18]; 0.6 µM): 1; viability ([18]; 3 µM): 0.896; viability ([18]; 15 µM): 0.254; viability ([19]; 0.024 µM): 0.989; viability ([19]; 0.12 µM): 1.22; viability ([19]; 0.6 µM): 1.58; viability ([19]; 3 µM): 1.72; viability ([19]; 15 µM): 0.816
